Reference: patent US3970648A, “2-[2-(5-Nitro-2-furyl)vinyl]-4-(anilino)quinazolines” (Diamond Shamrock Corporation, priority 1974, dated 1976)

Key:
[1] = Growth promotion in chicks, Example XII repeat (Table VII); assay type: in vivo, broiler cross chicks; settings: for growth rate / feed efficiency, production parameters (in words): 25 g/T, second set of tests
Source text: (§1) This example compares growth promotion activity of the product of Example I with other growth promotants at a concentration of 25 g/T in the Basal Ration described in Example VII. The other growth promotants include the product described in Example I of U.S. Pat. No. 3,542,784 -- Burch and quinoxaline-1,4-dioxide. Day old broiler cross chicks were weight equalized into groups of eight chicks each, and four replicates of eight chicks each were fed the experimental rations over a 4 week period.
The growth promotion tests described in Example X were repeated with the additional testing the products of Examples II and III.

Vibrio coli = assay: Bactericide test, Vibrio coli (agar streak plate); assay type: cell-based
Source text: (§2) Test formulations were examined for bactericidal and/or bacteriostatic activity against the test organisms shown in Tables A and B. These organisms were chosen as being representative of commercially important pathogens affecting animal agriculture. The antibiotic chlortetracycline was chosen as a positive control, since it has a broad spectrum of activity against a large number of organisms, and its activity can be used for comparative purposes.
(§3) Basic test formulations of the product of Examples I, II, III, and of chlortetracycline were prepared by dissolving 16 mg (0.016 g) in 2.0 ml of stock emulsifier solution (0.25% Triton X-155 in acetone by volume) and making each solution up to 50 ml with deionized water. The concentration of the test compound in the basic formulation was 320 ppm. Lower concentrations of the test compound were obtained by diluting the basic formulation with a 4% solution of the stock emulsifier in deionized water so that each dilution in the series differed only in test compound content.
(§4) Nutrient-tryptic soy agar (NTA) consisting of 2.0% Difco Bactoagar 0.8% nutrient broth (Difco), and 0.5% tryptic soy broth (Difco) was prepared and sterilized by autoclaving. A 2 ml aliquot of each test formulation was added to 8 ml of molten NTA. This mixture was then plated in a sterile polystyrene petri dish (100 × 15 mm). After the agar was set, suspensions of each of the test organisms were simultaneously streaked onto the surface of the agar. The inoculated plates were incubated for 48 hr at 28°C. The inhibition of growth of each organism was rated by visual comparison with the organism developing on non-treated agar. Growth inhibition reported as per cent control was rated in three categories as follows: 0% control, growth equivalent to that on non-treated agar; 50% control, sparse development and separated colonies; 100% control, no visible growth or development of colonies.

Staphylococcus aureus = assay: Bactericide test, Staphylococcus aureus (agar streak plate); assay type: cell-based
Source text: as §2, §3, §4
(§5) Test formulations of the product of Example IV were examined for bactericidal and/or bacteriostatic activity against the test organisms shown in Table B using the Bactericide Test described in Example V. The inhibition of organism growth with each diluted test formulation was rated visually by comparison with the organism developing on a non-treated control agar plate. Growth inhibition reported as per cent control was rated in three categories as follows: 0% control, growth equivalent to that on non-treated agar; 50% control is sparse development and separated colonies; and 100% control, development of individual colonies was not apparent.

[2] = Growth promotion in chicks, Example XII first set (Table VI); assay type: in vivo, broiler cross chicks; settings: for Average 4 Week Performance: Feed Efficiency / Average 4 Week Performance: Gain / Improved Response Over Basal Ration: Feed Efficiency / Improved Response Over Basal Ration: Gain: 25 g/T in basal ration, 4 weeks; for growth rate / feed efficiency, production parameters (in words): 25 g/T, first set of tests
Source text: as §1, with “period. […]” for “period.”

[3] = tested on: Erysipelothrix rhusiopathiae; assay: Bactericide test, Erysipelothrix rhusiopathiae (agar streak plate); assay type: cell-based
Source text: as §2, §3, §4

Salmonella typhimurium = assay: Bactericide test, Salmonella typhimurium (agar streak plate); assay type: cell-based
Source text: as §2, §3, §4

Salmonella cholerasuis = assay: Bactericide test, Salmonella cholerasuis (agar streak plate); assay type: cell-based
Source text: as §2, §3, §4, §5

[4] = Growth promotion in chicks at 25 g/T, Example X (Table IV); assay type: in vivo, broiler cross chicks
Source text: as §1

Streptococcus agalactiae = assay: Bactericide test, Streptococcus agalactiae (agar streak plate); assay type: cell-based
Source text: as §2, §3, §4

Streptococcus faecalis = assay: Bactericide test, Streptococcus faecalis (agar streak plate); assay type: cell-based
Source text: as §2, §3, §4, §5

Salmonella gallinarum = assay: Bactericide test, Salmonella gallinarum (agar streak plate); assay type: cell-based
Source text: as §2, §3, §4, §5

Streptococcus group E = assay: Bactericide test, Streptococcus group E (agar streak plate); assay type: cell-based
Source text: as §2, §3, §4

[5] = tested on: Bordetella bronchiseptica; assay: Bactericide test, Bordetella bronchiseptica (agar streak plate); assay type: cell-based
Source text: as §2, §3, §4

[6] = Growth promotion in chicks at low feed levels, Example VIII (Table II); assay type: in vivo, broiler cross chicks; settings: 10 g/T in basal ration; 4 weeks
Source text: Day old broiler cross chicks were weight equalized into groups of eight chicks each and were placed in battery brooders. The 32 chick treatment groups (four replicates) were fed one of the five rations described below for a 4 week period. Weekly measurements of body weights and feed consumption were made by replicate, and these measurements used to calculate weight gain and feed efficiency.
The basal ration was the basal ration used in Example VII above. The remaining five rations were obtained by mixing the indicated quantities of bacitracin (4 g/T), chlortetracycline (10 g/T), product of Example I (10 g/T), and product of Example III of U.S. Pat. No. 3,542,784 -- Burch (10 g/T) as growth promotants with the basal ration.

[7] = 25 g/T in basal ration, 4 weeks
[8] = 100% inhibition at lower concentrations

In the case of “2-[2-(5-nitro-2-furyl)vinyl]-4-(o-hydroxyanilino)quinazoline [Example III]”, the “Average 4 Week Performance: Feed Efficiency” value [1, 7] is reported as 1.669, the “Average 4 Week Performance: Gain” value [1, 7] is reported as 723.7 g and the “Improved Response Over Basal Ration: Feed Efficiency” value [1, 7] is reported as “+6.5%”. For the same compound, the “Improved Response Over Basal Ration: Gain” value [1, 7] was “+6.0%”, the “growth rate / feed efficiency, production parameters (in words)” value (“growth rate / feed efficiency” below) [1] was “more substantial response” and the “% Inhibition” value (Vibrio coli; 0.125 ppm) was 100%. The “% Inhibition” value (Vibrio coli; 0.25 ppm) was 100%, the “% Inhibition” value (Vibrio coli; 0.5 ppm) was 100% and the “% Inhibition” value (Vibrio coli; 1 ppm) was 100%. The “% Inhibition” value (Vibrio coli; 2 ppm) was 100%, the “% Inhibition” value (Vibrio coli; 4 ppm) was 100% and the “% Inhibition” value (Vibrio coli; 8 ppm) was 100%. The “% Inhibition” value (Vibrio coli; 16 ppm) was 100%, the “% Inhibition” value (Vibrio coli; 32 ppm) was 100% and the “% Inhibition” value (Vibrio coli; 64 ppm) was 100%. For the same compound, the “effectiveness compared with chlortetracycline (in words)” value (Vibrio coli; [8]) was “considerably more effective”, the “% Inhibition” value (Staphylococcus aureus; 0.125 ppm) was 0% and the “% Inhibition” value (Staphylococcus aureus; 0.25 ppm) was 0%. For the same compound, the “% Inhibition” value (Staphylococcus aureus; 0.5 ppm) was 0%, the “% Inhibition” value (Staphylococcus aureus; 1 ppm) was 0% and the “% Inhibition” value (Staphylococcus aureus; 2 ppm) was 0%. The “% Inhibition” value (Staphylococcus aureus; 4 ppm) was 0%, the “% Inhibition” value (Staphylococcus aureus; 8 ppm) was 0% and the “% Inhibition” value (Staphylococcus aureus; 16 ppm) was 0%. The “% Inhibition” value (Staphylococcus aureus; 32 ppm) was 0%, the “% Inhibition” value (Staphylococcus aureus; 64 ppm) was 0% and the “Average 4 Week Performance: Feed Efficiency” value [2] was 1.597. For the same compound, the “Average 4 Week Performance: Gain” value [2] was 766.9 g, the “Improved Response Over Basal Ration: Feed Efficiency” value [2] was “+2.3%” and the “Improved Response Over Basal Ration: Gain” value [2] was “+3.1%”. The “growth rate / feed efficiency” value [2] was “moderate improvements”, the “% Inhibition” value ([3]; 1 ppm) was 100% and the “% Inhibition” value ([3]; 2 ppm) was 100%. The “% Inhibition” value ([3]; 4 ppm) was 100%, the “% Inhibition” value ([3]; 8 ppm) was 100% and the “% Inhibition” value ([3]; 16 ppm) was 100%. The “% Inhibition” value ([3]; 32 ppm) was 100%, the “% Inhibition” value ([3]; 64 ppm) was 100% and the “effectiveness compared with chlortetracycline (in words)” value [3, 8] was “considerably more effective”. The “% Inhibition” value (Salmonella typhimurium; 0.125 ppm) was 0%, the “% Inhibition” value (Salmonella typhimurium; 0.25 ppm) was 0% and the “% Inhibition” value (Salmonella typhimurium; 0.5 ppm) was 0%. For the same compound, the “% Inhibition” value (Salmonella typhimurium; 1 ppm) was 0%, the “% Inhibition” value (Salmonella typhimurium; 2 ppm) was 0% and the “% Inhibition” value (Salmonella typhimurium; 4 ppm) was 0%. The “% Inhibition” value (Salmonella typhimurium; 8 ppm) was 0%, the “% Inhibition” value (Salmonella typhimurium; 16 ppm) was 0% and the “% Inhibition” value (Salmonella typhimurium; 32 ppm) was 0%. The “% Inhibition” value (Salmonella typhimurium; 64 ppm) was 0%, the “% Inhibition” value (Salmonella cholerasuis; 0.125 ppm) was 0% and the “% Inhibition” value (Salmonella cholerasuis; 0.25 ppm) was 0%. For the same compound, the “% Inhibition” value (Salmonella cholerasuis; 0.5 ppm) was 0%, the “% Inhibition” value (Salmonella cholerasuis; 1 ppm) was 0% and the “% Inhibition” value (Salmonella cholerasuis; 2 ppm) was 0%. The “% Inhibition” value (Salmonella cholerasuis; 16 ppm) was 100%, the “% Inhibition” value (Salmonella cholerasuis; 32 ppm) was 100% and the “% Inhibition” value (Salmonella cholerasuis; 64 ppm) was 100%. The “Average 4 Week Performance: Feed Efficiency” value [4, 7] was 1.503, the “Average 4 Week Performance: Gain” value [4, 7] was 812.7 g and the “Improved Response Over Basal Ration: Feed Efficiency” value [4, 7] was “+3.2%”. The “Improved Response Over Basal Ration: Gain” value [4, 7] was “+6.2%”, the “% Inhibition” value (Streptococcus agalactiae; 0.125 ppm) was 100% and the “% Inhibition” value (Streptococcus agalactiae; 0.25 ppm) was 100%. For the same compound, the “% Inhibition” value (Streptococcus agalactiae; 0.5 ppm) was 100%, the “% Inhibition” value (Streptococcus agalactiae; 1 ppm) was 100% and the “% Inhibition” value (Streptococcus agalactiae; 2 ppm) was 100%. The “% Inhibition” value (Streptococcus agalactiae; 4 ppm) was 100%, the “% Inhibition” value (Streptococcus agalactiae; 8 ppm) was 100% and the “% Inhibition” value (Streptococcus agalactiae; 16 ppm) was 100%. The “% Inhibition” value (Streptococcus agalactiae; 32 ppm) was 100%, the “% Inhibition” value (Streptococcus agalactiae; 64 ppm) was 100% and the “effectiveness compared with chlortetracycline (in words)” value (Streptococcus agalactiae; [8]) was “considerably more effective”. For the same compound, the “% Inhibition” value (Streptococcus faecalis; 0.125 ppm) was 0%, the “% Inhibition” value (Streptococcus faecalis; 0.25 ppm) was 0% and the “effectiveness compared with chlortetracycline (in words)” value (Streptococcus faecalis; [8]) was “considerably more effective”. The “% Inhibition” value (Salmonella gallinarum; 0.125 ppm) was 0%, the “% Inhibition” value (Salmonella gallinarum; 0.25 ppm) was 0% and the “% Inhibition” value (Salmonella gallinarum; 0.5 ppm) was 0%. The “% Inhibition” value (Salmonella gallinarum; 1 ppm) was 0%, the “% Inhibition” value (Salmonella gallinarum; 2 ppm) was 0% and the “% Inhibition” value (Salmonella gallinarum; 4 ppm) was 50%. For the same compound, the “% Inhibition” value (Salmonella gallinarum; 8 ppm) was 50%, the “% Inhibition” value (Salmonella gallinarum; 16 ppm) was 100% and the “% Inhibition” value (Salmonella gallinarum; 32 ppm) was 100%. For the same compound, the “% Inhibition” value (Salmonella gallinarum; 64 ppm) was 100%, the “% Inhibition” value (Streptococcus group E; 0.125 ppm) was 100% and the “% Inhibition” value (Streptococcus group E; 0.25 ppm) was 100%. For the same compound, the “% Inhibition” value (Streptococcus group E; 0.5 ppm) was 100%, the “% Inhibition” value (Streptococcus group E; 1 ppm) was 100% and the “% Inhibition” value (Streptococcus group E; 2 ppm) was 100%. The “% Inhibition” value (Streptococcus group E; 4 ppm) was 100%, the “% Inhibition” value (Streptococcus group E; 8 ppm) was 100% and the “% Inhibition” value (Streptococcus group E; 16 ppm) was 100%. For the same compound, the “% Inhibition” value (Streptococcus group E; 32 ppm) was 100%, the “% Inhibition” value (Streptococcus group E; 64 ppm) was 100% and the “effectiveness compared with chlortetracycline (in words)” value (Streptococcus group E; [8]) was “considerably more effective”. The “% Inhibition” value ([5]; 0.125 ppm) was 100%, the “% Inhibition” value ([5]; 0.25 ppm) was 100% and the “% Inhibition” value ([5]; 0.5 ppm) was 100%. The “% Inhibition” value ([5]; 1 ppm) was 100%, the “% Inhibition” value ([5]; 2 ppm) was 100% and the “% Inhibition” value ([5]; 4 ppm) was 100%. For the same compound, the “% Inhibition” value ([5]; 8 ppm) was 100%, the “% Inhibition” value ([5]; 16 ppm) was 100% and the “% Inhibition” value ([5]; 32 ppm) was 100%. The “% Inhibition” value ([5]; 64 ppm) was 100% and the “effectiveness compared with chlortetracycline (in words)” value [5, 8] was “considerably more effective”.
In the case of `O=[N+]([O-])c1ccc(-c2nc(Nc3ccc(O)cc3)c3ccccc3n2)o1` [2-(5-nitro-2-furyl)-4-(p-hydroxyanilino)quinazoline, reference compound], the “growth rate / feed efficiency” value [1] is reported as “essentially no effect on growth rate or feed efficiency”, the “Average 4 Week Performance: Feed Efficiency” value [2] is reported as 1.675 and the “Average 4 Week Performance: Gain” value [2] is reported as 736.9 g. For the same compound, the “Improved Response Over Basal Ration: Feed Efficiency” value [2] was -2.5%, the “Improved Response Over Basal Ration: Gain” value [2] was -1.0% and the “growth rate / feed efficiency” value [2] was “essentially no effect on growth rate or feed efficiency”. For the same compound, the “effect on feed efficiency (in words)” value ([4]; 25 g/T) was “slight, if any, effect on feed efficiency”, the “growth response (in words)” value ([4]; 25 g/T) was “appeared to give a growth response” and the “Average 4 Week Performance: Feed Efficiency” value [6] was 1.726. The “Average 4 Week Performance: Gain” value [6] was 723.1 g, the “Improved Response Over Basal Ration: Feed Efficiency” value [6] was “+1.9%” and the “Improved Response Over Basal Ration: Gain” value [6] was “+0.4%”.
